Our source for the EC50 values is US12129312B2, “Peptide compound, application thereof and composition containing same” (priority 2017, dated 2024).

pEC50: −log10 of the molar value. Numbered stars: 1 amine (or outer) side, 2 acyl side, 3 side chain; on linkers, the order of the positions; unused ones are H or OH. Square brackets hold non-standard residues; d marks the D form. Peptide text beside a SMILES is read from it. * marks the point of attachment. X4 = O=C([C@@H]1Cc2ccsc2CN1[*:1])[*:2]; X5 = O=C([C@H]1c2ccccc2CCN1[*:1])[*:2]; 1Nal = N[C@@H](Cc1cccc2ccccc12)C(=O)O; 2Nal = N[C@@H](Cc1ccc2ccccc2c1)C(=O)O; Tiq1c(1S) = O=C(O)[C@H]1NCCc2ccccc21; dNMeY = CN[C@H](Cc1ccc(O)cc1)C(=O)O; X3 = O=C(N1Cc2ccccc2CN1[*:1])[*:2]; Hydrocinnamoyl = O=C(CCc1ccccc1)*; Tic = O=C(O)[C@@H]1Cc2ccccc2CN1; dTic = O=C(O)[C@H]1Cc2ccccc2CN1; NMeL = CN[C@@H](CC(C)C)C(=O)O; X12 = O=C(Cc1cc(O)cc(O)c1)*; NMeS = CN[C@@H](CO)C(=O)O; Thz = O=C(O)[C@@H]1CSCN1

In one test the target is T1, human Chemokine like receptor 1 (Homo sapiens, UniProt Q99788).
T1 construct: host or cells: U2OS (Tango CMKLR1-bla U2OS)
T1 sequence (Q99788 1-373): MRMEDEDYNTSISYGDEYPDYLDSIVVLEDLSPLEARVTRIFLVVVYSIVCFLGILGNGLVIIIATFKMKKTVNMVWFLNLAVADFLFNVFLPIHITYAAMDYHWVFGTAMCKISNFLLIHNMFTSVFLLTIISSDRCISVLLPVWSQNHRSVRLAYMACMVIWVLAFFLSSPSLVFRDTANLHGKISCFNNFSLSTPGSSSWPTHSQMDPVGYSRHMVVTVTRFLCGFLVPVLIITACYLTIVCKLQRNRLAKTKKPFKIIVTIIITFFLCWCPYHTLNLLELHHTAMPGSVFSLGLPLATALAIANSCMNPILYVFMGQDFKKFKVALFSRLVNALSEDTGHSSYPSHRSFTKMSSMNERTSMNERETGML
In words: Activation of Tango CMKLR1-bla U2OS cells (beta-lactamase FRET reporter).
Settings: not given
It counts as cell-based. In short, it runs like this:
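Agonist mode in Tango CMKLR1-bla U2OS cells, 10000 cells/well seeded overnight, then 10-point 3-fold compound dilutions from 10 mM DMSO stock applied for 4 h at 37 °C, 5% CO2. Beta-lactamase reporter read with CCF4-AM FRET substrate; peptide (D-Tyr)-Phe-Leu-Pro-(D-Ser)-Gln-Phe-(D-Ala)-Tic-Ser served as positive control.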
`CC(C)C[C@@H](C(=O)N1CCC[C@H]1C(=O)N[C@H](CO)C(=O)N[C@@H](CCC(N)=O)C(=O)N[C@@H](Cc1ccc2ccccc2c1)C(=O)N[C@H](C)C(=O)N1Cc2ccccc2C[C@H]1C(=O)N[C@@H](CO)C(=O)O)N(C)C(=O)[C@H](Cc1ccccc1)NC(=O)[C@H](N)Cc1ccc(O)cc1` [YW-164, (D-Tyr)-Phe-(NMe-Leu)-Pro-(D-Ser)-Gln-2Nal-(D-Ala)-Tic-Ser-OH] (H-[dY]F[NMeL]P[dS]Q[2Nal][dA][Tic]S-OH) had a pEC50 of 8.96. `CC(C)C[C@@H](C(=O)N1CCC[C@H]1C(=O)N[C@H](CO)C(=O)N[C@@H](CCC(N)=O)C(=O)N[C@@H](Cc1cccc2ccccc12)C(=O)N[C@H](C)C(=O)N1Cc2ccccc2C[C@H]1C(=O)N[C@@H](CO)C(=O)O)N(C)C(=O)[C@H](Cc1ccccc1)NC(=O)[C@H](N)Cc1ccc(O)cc1` [YW-165, (D-Tyr)-Phe-(NMe-Leu)-Pro-(D-Ser)-Gln-1Nal-(D-Ala)-Tic-Ser-OH] (H-[dY]F[NMeL]P[dS]Q[1Nal][dA][Tic]S-OH) had a pEC50 of 8.82.

Still in this test, the particulars now being: Tango CMKLR1-bla U2OS cells, 4 hours incubation, four-parameter fit of activation rate.
`CC(C)C[C@H](NC(=O)[C@H](Cc1ccccc1)NC(=O)[C@H](N)Cc1ccc(O)cc1)C(=O)N1CCC[C@H]1C(=O)N[C@H](CO)C(=O)N[C@@H](CCC(N)=O)C(=O)N[C@H](CO)C(=O)N[C@H](C)C(=O)N1Cc2ccccc2CN1C(=O)N[C@@H](CO)C(=O)O` [YW-147, (D-Tyr)-Phe-Leu-Pro-(D-Ser)-Gln-(D-Ser)-(D-Ala)-azaTic-Ser-OH] (H-[dY]FLP[dS]Q[dS][dA][X3]S-OH; N-terminus assumed): the EC50 result was “no fit”.

Still in this test, the particulars now being: determination by the method of Effect Embodiment 1; read-out: EC50.
As to `CC(C)C[C@H](NC(=O)[C@H](Cc1ccccc1)NC(=O)[C@@H](Cc1ccc(O)cc1)NC(=O)Cc1cc(O)cc(O)c1)C(=O)N1CCC[C@H]1C(=O)N[C@H](CO)C(=O)N[C@@H](CCC(N)=O)C(=O)N[C@@H](Cc1ccccc1)C(=O)N[C@H](C)C(=O)N1Cc2ccccc2C[C@H]1C(=O)N[C@@H](CO)C(=O)O` [YW-131, 3,5-Dihydroxyphenylacetyl-(D-Tyr)-Phe-Leu-Pro-(D-Ser)-Gln-Phe-(D-Ala)-Tic-Ser] (X12-[dY]FLP[dS]QF[dA][Tic]S-OH), the pEC50 is 8.54. Regarding `CN[C@H](Cc1ccc(O)cc1)C(=O)N[C@@H](Cc1ccccc1)C(=O)N(C)[C@@H](CC(C)C)C(=O)N1CSC[C@H]1C(=O)N[C@H](CO)C(=O)N[C@@H](CCC(N)=O)C(=O)N[C@@H](Cc1cccc2ccccc12)C(=O)N[C@H](C)C(=O)N1Cc2ccccc2C[C@H]1C(=O)N(C)[C@@H](CO)C(=O)O` [YW-142, (D-NMe-Tyr)-Phe-(NMe-Leu)-Thz-(D-Ser)-Gln-1Nal-(D-Ala)-Tic-(NMe-Ser)-OH] (H-[dNMeY]F[NMeL][Thz][dS]Q[1Nal][dA][Tic][NMeS]-OH; N-terminus assumed), the pEC50 was 9.05.

For `CN[C@H](Cc1ccc(O)cc1)C(=O)N[C@@H](Cc1ccccc1)C(=O)N(C)[C@@H](CC(C)C)C(=O)N1CCC[C@H]1C(=O)N[C@H](CO)C(=O)N[C@@H](CCC(N)=O)C(=O)N[C@@H](Cc1ccc2ccccc2c1)C(=O)N[C@H](C)C(=O)N1Cc2ccccc2C[C@H]1C(=O)N(C)[C@@H](CO)C(=O)O` [YW-146, (D-NMe-Tyr)-Phe-(NMe-Leu)-Pro-(D-Ser)-Gln-2Nal-(D-Ala)-Tic-(NMe-Ser)-OH] (H-[dNMeY]F[NMeL]P[dS]Q[2Nal][dA][Tic][NMeS]-OH), the pEC50 is 8.85.

Consider `CC(C)C[C@H](NC(=O)[C@H](Cc1ccccc1)NC(=O)[C@H](N)Cc1ccc(O)cc1)C(=O)N1CCC[C@H]1C(=O)N[C@H](CO)C(=O)N[C@@H](CCC(N)=O)C(=O)N[C@H](CO)C(=O)N[C@H](C)C(=O)N1Cc2ccccc2CN1C(=O)N[C@@H](CO)C(=O)O` [YW-147, (D-Tyr)-Phe-Leu-Pro-(D-Ser)-Gln-(D-Ser)-(D-Ala)-azaTic-Ser-OH] (H-[dY]FLP[dS]Q[dS][dA][X3]S-OH; N-terminus assumed), for which the pEC50 was under 4.30. As for `CN[C@H](Cc1ccc(O)cc1)C(=O)N[C@@H](Cc1ccccc1)C(=O)N(C)[C@@H](CC(C)C)C(=O)N1CSC[C@H]1C(=O)N[C@H](CO)C(=O)N[C@@H](CCC(N)=O)C(=O)N[C@@H](Cc1ccc2ccccc2c1)C(=O)N[C@H](C)C(=O)N1Cc2ccccc2C[C@H]1C(=O)N[C@@H](CO)C(=O)O` [YW-148, (D-NMe-Tyr)-Phe-(NMe-Leu)-Thz-(D-Ser)-Gln-2Nal-(D-Ala)-Tic-Ser-OH] (H-[dNMeY]F[NMeL][Thz][dS]Q[2Nal][dA][Tic]S-OH), the pEC50 was 9.30. Consider `CC(C)C[C@H](NC(=O)[C@H](Cc1ccccc1)NC(=O)[C@H](N)Cc1ccc(O)cc1)C(=O)N1CCC[C@H]1C(=O)N[C@H](CO)C(=O)N[C@@H](CCC(N)=O)C(=O)N[C@@H](Cc1ccccc1)C(=O)N[C@H](C)C(=O)N1Cc2ccccc2C[C@@H]1C(=O)N[C@@H](CO)C(=O)O` [YW-149, (D-Tyr)-Phe-Leu-Pro-(D-Ser)-Gln-Phe-(D-Ala)-D-Tic-Ser-OH] (H-[dY]FLP[dS]QF[dA][dTic]S-OH), for which the pEC50 was 7.68.

For `CC(C)C[C@H](NC(=O)[C@H](Cc1ccccc1)NC(=O)[C@H](N)Cc1ccc(O)cc1)C(=O)N1CCC[C@H]1C(=O)N[C@H](CO)C(=O)N[C@@H](CCC(N)=O)C(=O)N[C@@H](Cc1ccccc1)C(=O)N[C@H](C)C(=O)N1CCc2ccccc2[C@H]1C(=O)N[C@@H](CO)C(=O)O` [YW-150, (D-Tyr)-Phe-Leu-Pro-(D-Ser)-Gln-Phe-(D-Ala)-Ti1c-Ser-OH] (H-[dY]FLP[dS]QF[dA][Tiq1c(1S)]S-OH), the negative-log EC50 (pEC50) was 7.21.

With `CC(C)C[C@H](NC(=O)[C@H](Cc1ccccc1)NC(=O)[C@H](N)Cc1ccc(O)cc1)C(=O)N1CCC[C@H]1C(=O)N[C@H](CO)C(=O)N[C@@H](CCC(N)=O)C(=O)N[C@@H](Cc1ccccc1)C(=O)N[C@H](C)C(=O)N1CCc2ccccc2[C@@H]1C(=O)N[C@@H](CO)C(=O)O` [YW-151, (D-Tyr)-Phe-Leu-Pro-(D-Ser)-Gln-Phe-(D-Ala)-D-Ti1c-Ser-OH] (H-[dY]FLP[dS]QF[dA][X5]S-OH), the pEC50 is 7.57.

For `CC(C)C[C@@H](C(=O)N1CCC[C@H]1C(=O)N[C@H](CO)C(=O)N[C@@H](CCC(N)=O)C(=O)N[C@@H](Cc1ccccc1)C(=O)N[C@H](C)C(=O)N1CCc2ccccc2[C@@H]1C(=O)N[C@@H](CO)C(=O)O)N(C)C(=O)[C@H](Cc1ccccc1)NC(=O)[C@H](N)Cc1ccc(O)cc1` [YW-153, (D-Tyr)-Phe-(NMe-Leu)-Pro-(D-Ser)-Gln-Phe-(D-Ala)-D-Ti1c-Ser-OH] (H-[dY]F[NMeL]P[dS]QF[dA][X5]S-OH), the pEC50 is 8.07. Same read-out and setting: the result for `CN[C@H](Cc1ccc(O)cc1)C(=O)N[C@@H](Cc1ccccc1)C(=O)N[C@@H](CC(C)C)C(=O)N1CCC[C@H]1C(=O)N[C@H](CO)C(=O)N[C@@H](CCC(N)=O)C(=O)N[C@@H](Cc1ccccc1)C(=O)N[C@H](C)C(=O)N1CCc2ccccc2[C@@H]1C(=O)N[C@@H](CO)C(=O)O` [YW-154, (D-NMe-Tyr)-Phe-Leu-Pro-(D-Ser)-Gln-Phe-(D-Ala)-D-Ti1c-Ser-OH] (H-[dNMeY]FLP[dS]QF[dA][X5]S-OH) reads 7.47. Still for that read-out and setting: the result for `CC(C)C[C@H](NC(=O)[C@H](Cc1ccccc1)NC(=O)[C@H](N)Cc1ccc(O)cc1)C(=O)N1CCC[C@H]1C(=O)N[C@H](CO)C(=O)N[C@@H](CCC(N)=O)C(=O)N[C@@H](Cc1ccccc1)C(=O)N[C@H](C)C(=O)N1Cc2sccc2C[C@H]1C(=O)N[C@@H](CO)C(=O)O` [YW-158, (D-Tyr)-Phe-Leu-Pro-(D-Ser)-Gln-Phe-(D-Ala)-TP5C-Ser-OH] (H-[dY]FLP[dS]QF[dA][X4]S-OH; N-terminus assumed) reads 7.19; that for `CC(C)C[C@@H](C(=O)N1CCC[C@H]1C(=O)N[C@H](CO)C(=O)N[C@@H](CCC(N)=O)C(=O)N[C@@H](Cc1ccccc1)C(=O)N[C@H](C)C(=O)N1Cc2ccccc2C[C@H]1C(=O)N[C@@H](CO)C(N)=O)N(C)C(=O)[C@H](Cc1ccccc1)NC(=O)[C@@H](Cc1ccc(O)cc1)NC(=O)CCc1ccccc1` [YW-161, 3-phenylpropanoyl-(D-Tyr)-Phe-(NMe-Leu)-Pro-(D-Ser)-Gln-Phe-(D-Ala)-Tic-Ser-NH2] (Hydrocinnamoyl-[dY]F[NMeL]P[dS]QF[dA][Tic]S-NH2), 8.52. Take `CN[C@H](Cc1ccc(O)cc1)C(=O)N[C@@H](Cc1ccccc1)C(=O)N(C)[C@@H](CC(C)C)C(=O)N1CCC[C@H]1C(=O)N[C@H](CO)C(=O)N[C@@H](CCC(N)=O)C(=O)N[C@@H](Cc1cccc2ccccc12)C(=O)N[C@H](C)C(=O)N1Cc2ccccc2C[C@H]1C(=O)N(C)[C@@H](CO)C(=O)O` [YW-162, (D-NMe-Tyr)-Phe-(NMe-Leu)-Pro-(D-Ser)-Gln-1Nal-(D-Ala)-Tic-NMeSer-OH] (H-[dNMeY]F[NMeL]P[dS]Q[1Nal][dA][Tic][NMeS]-OH): the pEC50 was 8.59. Regarding `CN[C@H](Cc1ccc(O)cc1)C(=O)N[C@@H](Cc1ccccc1)C(=O)N(C)[C@@H](CC(C)C)C(=O)N1CCC[C@H]1C(=O)N[C@H](CO)C(=O)N[C@@H](CCC(N)=O)C(=O)N[C@@H](Cc1ccccc1)C(=O)N[C@H](C)C(=O)N1Cc2ccccc2C[C@H]1C(=O)N[C@@H](CO)C(=O)O` [YW-163, (D-NMe-Tyr)-Phe-(NMe-Leu)-Pro-(D-Ser)-Gln-Phe-(D-Ala)-Tic-Ser-OH] (H-[dNMeY]F[NMeL]P[dS]QF[dA][Tic]S-OH), the pEC50 is 8.66. On to `CC(C)C[C@@H](C(=O)N1CCC[C@H]1C(=O)N[C@H](CO)C(=O)N[C@@H](CCC(N)=O)C(=O)N[C@@H](Cc1ccccc1)C(=O)N[C@H](C)C(=O)N1Cc2ccccc2C[C@H]1C(=O)N(C)[C@@H](CO)C(=O)O)N(C)C(=O)[C@H](Cc1ccccc1)NC(=O)[C@H](N)Cc1ccc(O)cc1` [YW-166, (D-Tyr)-Phe-(NMe-Leu)-Pro-(D-Ser)-Gln-Phe-(D-Ala)-Tic-(NMe-Ser)-OH] (H-[dY]F[NMeL]P[dS]QF[dA][Tic][NMeS]-OH), for which the negative-log EC50 (pEC50) is 8.30.
